# From publication PMC11855827, “High-Throughput Screening of Five Compound Libraries for Anthelmintic Activity and Toxicity Leads to the Discovery of Two Flavonoid Compounds” (International Journal of Molecular Sciences, 2025)
# Like-named read-outs stand apart in the source and are kept apart here.
# System: C. elegans
# [1] = Table S2, C. elegans SS assay, 110 μM, 0 h, averages of 4 data points
# [2] = Table S2, C. elegans SS assay, 110 μM, 24 h, averages of 4 data points
SMILES,Percentage of motility inhibition 0 h (110 µM),Percentage of motility inhibition 24 h (110 µM),Percentage of motility inhibition 0 h [1],Percentage of motility inhibition 24 h [2]
CC(C)=C[C@H]1C[C@](C)(O)[C@@H]2[C@H]3CC[C@@H]4[C@@]5(C)CC[C@H](O[C@@H]6OC[C@H](O)[C@H](O[C@@H]7O[C@H](CO[C@@H]8O[C@H](CO)[C@@H](O)[C@H](O)[C@H]8O)[C@@H](O)[C@H](O)[C@H]7O[C@@H]7OC[C@@H](O)[C@H](O)[C@H]7O)[C@H]6O[C@@H]6O[C@@H](C)[C@H](O)[C@@H](O)[C@H]6O)C(C)(C)[C@@H]5CC[C@@]4(C)[C@@]34CO[C@@]2(C4)O1 [Jujuboside A],0%,0%,,
CC(C)=C[C@H]1C[C@](C)(O)[C@@H]2[C@H]3CC[C@@H]4[C@@]5(C)CC[C@H](O[C@@H]6OC[C@H](O)[C@H](O[C@@H]7O[C@H](CO)[C@@H](O)[C@H](O)[C@H]7O[C@@H]7OC[C@@H](O)[C@H](O)[C@H]7O)[C@H]6O[C@@H]6O[C@@H](C)[C@H](O)[C@@H](O)[C@H]6O)C(C)(C)[C@@H]5CC[C@@]4(C)[C@@]34CO[C@@]2(C4)O1 [Jujuboside B],,,0%,0%
O=c1c(O[C@@H]2O[C@H](CO[C@@H]3O[C@H](CO)[C@@H](O)[C@H](O)[C@H]3O)[C@@H](O)[C@H](O)[C@H]2O)c(-c2ccc(O)cc2)oc2cc(O)cc(O)c12 [Kaempferol 3‐O‐gentiobioside],,,0%,12%
O=C(O)[C@H]1O[C@@H](Oc2c(-c3ccc(O)cc3)oc3cc(O)cc(O)c3c2=O)[C@H](O)[C@@H](O)[C@@H]1O [Kaempferol 3‐O‐β‐D‐glucuronide],,,5%,0%
C[C@@H]1O[C@@H](O[C@H]2[C@H](Oc3c(-c4ccc(O)cc4)oc4cc(O)cc(O)c4c3=O)O[C@H](CO)[C@@H](O)[C@@H]2O)[C@H](O)[C@H](O)[C@H]1O [Kaempferol 3‐neohesperidoside],,,17%,10%
C[C@@H]1O[C@@H](O[C@H]2[C@H](Oc3c(-c4ccc(O)cc4)oc4cc(O)cc(O)c4c3=O)O[C@H](CO)[C@@H](O)[C@@H]2O)[C@H](O)[C@H](O)[C@H]1O [Kaempferol‐3‐O‐glucorhamnoside],,,5%,2%
C[C@@]12C=Cc3occc3[C@H]1CC[C@@]13C[C@@H](CC[C@H]12)[C@@](O)(CO)C3 [Kahweol],,,11%,19%
C=C1CC[C@@H]2[C@](C)(COC(=O)CCC(=O)[O-])[C@H](OC(=O)CCC(=O)O)CC[C@@]2(C)[C@@H]1/C=C/C1=CCOC1=O.[K+] [Kalii Dehydrographolidi Succinas],,,5%,5%
NC[C@H]1O[C@H](O[C@H]2[C@H](O)[C@@H](O[C@H]3O[C@H](CO)[C@@H](O)[C@H](N)[C@H]3O)[C@H](N)C[C@@H]2N)[C@H](O)[C@@H](O)[C@@H]1O.O=S(=O)(O)O [Kanamycin (sulfate)],,,22%,7%
C[C@@H]1CC[C@@H]2O[C@@]23C(=O)C(=O)[C@@H]2[C@@H](C2(C)C)[C@@]13C [Kanshone C],,,17%,22%
C[C@H]1O[C@H](OC2[C@@H](O)[C@@H](O)C(O)[C@H](O)[C@H]2O)[C@@H](N)C[C@@H]1N=C(N)C(=O)O.Cl.O (some centres unmarked) [Kasugamycin (hydrochloride hydrate)],,,12%,0%
"CC1(C)CCC[C@]2(C)[C@@H]1CC[C@@]13C[C@H](CC[C@H]12)[C@@](O)(CO)C3 [Kauran-16,17-diol]",,,0%,22%
C[C@@H]1CC[C@@]2(NC1)O[C@H]1C[C@H]3[C@@H]4CC=C5C[C@@H](O[C@@H]6O[C@H](CO)[C@@H](O[C@@H]7O[C@@H](C)[C@H](O)[C@@H](O)[C@H]7O)[C@H](O)[C@H]6O)CC[C@]5(C)[C@H]4CC[C@]3(C)[C@H]1[C@@H]2C [Khasianine],,,19%,10%
OC[C@H]1O[C@@H](Oc2cc3c(O)cc(O)cc3[o+]c2-c2ccc(O)c(O)c2)[C@H](O)[C@@H](O)[C@@H]1O.[Cl-] [Kuromanin (chloride)],,,34%,5%
C=C(C)[C@H](CC=C(C)C)Cc1c(O)cc(OC)c2c1O[C@H](c1ccc(O)cc1O)[C@@H](O)C2=O [Kushenol I],,,0%,8%
CC(C)=CCc1c(O)ccc(C(=O)[C@@H]2[C@@H](c3c(O)cc(O)c4c(=O)c(CC=C(C)C)c(-c5ccc(O)cc5O)oc34)C=C(C)C[C@H]2c2ccc(O)cc2O)c1O [Kuwanon H],,,11%,23%
O=C(O)c1cc(=O)c2ccccc2[nH]1 [Kynurenic acid],,,17%,0%
N=C(N)NCCC[C@H](N)C(=O)O.N[C@@H](CCC(=O)O)C(=O)O [L-Arginine (L-glutamate)],,,22%,0%
Cl.N=C(N)NCCC[C@H](N)C(=O)O [L-Arginine (hydrochloride)],,,20%,17%
O=C1O[C@H]([C@@H](O)CO)C([O-])=C1O.[Na+] [L-Ascorbic acid (sodium salt)],,,6%,3%
NC(=O)C[C@H](N)C(=O)O [L-Asparagine],,,27%,25%
C[N+](C)(C)C[C@H](O)CC(=O)[O-] [L-Carnitine],,,7%,1%

SMILES,Percentage of motility inhibition 0 h (110 µM),Percentage of motility inhibition 24 h (110 µM),Percentage of motility inhibition 0 h [1],Percentage of motility inhibition 24 h [2]
N[C@@H](CCC(=O)O)C(=O)[O-].[Na+] [L-Glutamic acid (monosodium salt)],,,1%,0%
CN1[C@@H]2CC[C@H]1CC(OC(=O)[C@H](CO)c1ccccc1)C2.CN1[C@@H]2CC[C@H]1CC(OC(=O)[C@H](CO)c1ccccc1)C2.O=S(=O)(O)O (stereo partly drawn) [L-Hyoscyamine (sulfate)],,,1%,6%
CN1[C@@H]2CC[C@H]1C[C@@H](OC(=O)[C@H](CO)c1ccccc1)C2 [L-Hyoscyamine],,,55%,28%
NCCCC[C@H](N)C(=O)O.O [L-Lysine hydrate],,,8%,2%
Cl.NCCCC[C@H](N)C(=O)O [L-Lysine hydrochloride],,,19%,0%
NCCC[C@H](N)C(=O)O [L-Ornithine],,,2%,4%
C=C(C)[C@@H]1CC=C(C=O)CC1 [L-Perillaldehyde],,,22%,25%
C=C1C(=O)O[C@@H]2[C@H]3C(CO)=CC(=O)C3=C(C)C[C@H](OC(=O)Cc3ccc(O)cc3)[C@@H]12 [Lactupicrin],,,7%,25%
COc1cc2c(cc1O)-c1c(OC)c(O)cc3c1[C@H](C2)NCC3 [Laetanine],,,0%,0%
CC[C@@H](C(=O)[C@@H](C)[C@@H](O)[C@H](C)CCc1ccc(C)c(O)c1C(=O)[O-])[C@H]1O[C@](CC)([C@H]2CC[C@](O)(CC)[C@H](C)O2)C[C@@H]1C.[Na+] [Lasalocid (sodium)],,,15%,4%
C=C1CC[C@H]2[C@@H](/C=C(\C)C(=O)[C@@]3(O)C[C@H](C)[C@H](O)[C@@H]3[C@@H]1O)C2(C)C [Lathyrol],,,1%,3%
CCCCCCCCCCCC(=O)O [Lauric acid],,,58%,61%
COc1cc2c(cc1O)C[C@@H]1NCCc3cc(O)c(OC)c-2c31.Cl [Laurolitsine (hydrochloride)],,,36%,5%
COC(=O)N[C@H](C(=O)N1CC2(CC2)C[C@H]1c1ncc(-c2ccc3c(c2)C(F)(F)c2cc(-c4ccc5nc([C@@H]6[C@H]7CC[C@H](C7)N6C(=O)[C@@H](NC(=O)OC)C(C)C)[nH]c5c4)ccc2-3)[nH]1)C(C)C.O=C(O)C(O)C(O)C(=O)O [Ledipasvir (D‐tartrate)],,,34%,13%
COC(=O)N[C@H](C(=O)N1CC2(CC2)C[C@H]1c1nc(-c2ccc3c(c2)C(F)(F)c2cc(-c4ccc5[nH]c([C@@H]6[C@H]7CC[C@H](C7)N6C(=O)[C@@H](NC(=O)OC)C(C)C)nc5c4)ccc2-3)c[nH]1)C(C)C [Ledipasvir (acetone)],,,14%,4%
CC(C)c1ccc2c(c1)CC[C@H]1[C@](C)(CN)CCC[C@]21C.Cl [Leelamine (hydrochloride)],,,22%,57%
COc1cc(C(=O)OCCCCN=C(N)N)cc(OC)c1O.Cl [Leonurine (hydrochloride)],,,0%,0%
COc1cccc(C[n+]2cn(Cc3ccccc3)c(C)c2C)c1.[Cl-] [Lepidiline C],,,0%,0%
O=c1c(O[C@@H]2O[C@H](CO)[C@@H](O)[C@H](O)[C@H]2O[C@@H]2OC[C@@H](O)[C@H](O)[C@H]2O)c(-c2ccc(O)cc2)oc2cc(O)cc(O)c12 [Leucoside],,,9%,8%
CC(C)=CCC[C@](C)(O)[C@@H]1CC=C(C)CC1 [Levomenol],,,37%,50%
COc1c(/C=C/C(=O)c2ccc(O)cc2)ccc(O)c1CC=C(C)C [Licochal cone C],,,0%,8%
